Marks after values point to notes of the source that are not given here. Blank lines part the entries; values can stand above or below the molecule they belong to. Square brackets hold non-standard residues; d marks the D form. Ends that are not written are not given here. Peptide text beside a SMILES is read from it.
Legend:
[1] = PIP-binding membrane assay (Membrane Lipid Strips); design: key: —: −−− no binding; +++ strong binding; settings: 400 ng peptide
Method: N-terminally biotinylated versions of the peptides listed below were used in various assays listed in the examples. For the two types of phosphatidylinositon phosphate (PIP)-binding assays, imm1-imm6 peptides were used.
In the PIP-binding membrane assay, 400 ng of each peptide was bound to Membrane Lipid Strips (Catalog # P-6002, Echelon Biosciences, Salt Lake City, UT) and developed according to the manufacturer's instructions. Binding to PIPs was as follows (−−− no binding; +++ strong binding): […]

[2] = system: THP1-Dual monocyte reporter cell line; assay: THP1-Dual myeloid cell differentiation assay (PMA protocol); type: cell-based, human; settings: PMA 24 h, then peptide 0.33 uM or 0.66 uM 24 h; for CD169+ (AU) / Clec12A(AU): relative to immX3AVD = 100; for CCL22: culture supernatant
Method: (§1) Mammalian cell differentiation assays employed the THP1-Dual monocyte reporter cell line (Invivogen Inc, San Diego, CA) seeded at 2×10e5 cells per well in 96-well plates and cultured at 37 degrees C. in RPMI-1640 growth medium plus 10% fetal bovine serum and 1% penicillin/streptomycin. Cells were subsequently treated for 24 hours with 100 ng/ml Phorbol 12-myristate 13-acetate (PMA protocol; Cayman Chemical Company, Ann Arbor, MI). Peptide (0.33 uM or 0.66 uM, as indicated) was then added, and incubation continued for an additional 24 hours. Culture supernatants were assayed for CCL22. Plates with adherent cells were washed with PBS and assayed for immunoreactivity of surface markers such as CD169, Clec9a or Clec12a using fuorescent tag- or biotin-labeled anti-human antibodies purchased from Miltenyi Biotec (Auburn, CA) and the secondary detection reagent recommended by the manufacturer.

[3] = Plate binding of FITC-labelled heparin to immobilised biotinylated peptides; settings: 400 ng peptide/well, 1 ug FITC-heparin, PBS; normalized to immX3 peptide binding = 100
Method: (§2) Effects of pH, PIP2 and size classes: Streptavidin-coated 96-well plates (G-Biosciences, St. Louis, MO) were pre-loaded with biotinylated peptides [see Example 1] at 400 ng/well, at room temperature for 60 minutes. The plate was washed with PBS buffer and then 1 ug FITC-labelled heparin or hyaluronic acid (FITC-HMW-HA) in 100 uL PBS buffer was added per well (all tests done in quadruplicate). Incubation proceeded for 90 minutes at room temperature, followed by two PBS washes. The plate was read in a standard laboratory fluorometer (488/525 nm exitation/[…]) and the counts normalized for immX3 peptide binding=100. Values statistically above background are shown in bold font. **p<0.05 versus immX3AVD.

[4] = Plate binding of FITC-labelled hyaluronic acid to immobilised biotinylated peptides; settings: 400 ng peptide/well, 1 ug FITC-HMW-HA, PBS; normalized to immX3 peptide binding = 100
Method: as §2

[5] = system: HFF-1 human fibroblast cell line; assay: Collagen stimulating activity in HFF-1 dermal fibroblasts (Collagen-1 ELISA); type: cell-based; settings: peptide 2 uM, 72 hour; control (buffer) set to 100
Method: Immodulin peptides have potential untility in the field of cosmetics. HFF-1 human fibroblast cell line was obtained from the American Type Culture Collection (ATCC). Cells were grown in a T-75 flask in DMEM Medium containing 10% fetal bovine serum and penicillin-streptomycin at 37° C. in a humidified, 5% CO2 incubator. Cells ([…], 2,000 cells/well) were plated in a 96-well plate and incubated overnight at 37° C. in a humidified, 5% CO2 incubator. Next day, […] of compounds were added (quadruplicate wells). After 72 hour incubation with the compound, supernatants were collected for Collagen-1 ELISA assay and cell viability was measured in a luminometer after the addition of […] CellTiterGlo reagent (Promega Inc, Madison, WI) as recommended by the manufacturer. Collagen stimulating activity of immodulin peptides in HFF-1 dermal fibroblasts: Peptides were added to cells at 2 uM. Collagen-1A1 (COL1) immunoreactivity was measured in the supernatants of cultured cells by ELISA using a rabbit monoclonal anti-COL1 primary antibody (Abcam, Cambridge, MA). Control (buffer) value of immunoreactivity was set to 100.

[6] = system: C2C12 myoblastic cell line; assay: C2C12 myoblast differentiation, creatine kinase; type: cell-based; settings: 0.66 uM peptide, 96 hours; helper none; relative to immX3AVD = 100
Method: Differentiation assays employed the C2C12 myoblastic cell line (ATCC, Manassas, VA) seeded at 2×10e5 cells per well in 96-well plates and cultured at 37 degrees C. in DMEM growth medium plus 10% fetal bovine serum and 1% penicillin/streptomycin. For differentiation, 10% fetal bovine serum was replaced with 2% horse serum. 0.66 uM peptide was then added, and incubation continued for an additional 96 hours. Plates with adherent cells were washed with PBS, lysed with Lytic-M buffer (Sigma Chemical Company, St. Louis, MO) and the lysates were assayed for creatine kinase using a kit purchased from Bioassay Systems (Cat. #ECPK-100, Hayward, CA). Effects were visually confirmed with microscopy tracking myotube formation. Results were expressed as units per milliliter relative to the control immX3AVD peptide, and p values were also calculated and shown relative to control immX3AVD peptide (** p<0.05 versus immX3AVD control; avg±SD).

[7] = system: Primary human T-cells pre-selected for recognizing GAD65 peptide antigen; assay: GAD65-specific primary T-cell differentiation on peptide-treated THP1-Dual cells; type: cell-based; settings: peptide 0.66 uM, GAD65 1 ug/ml; for FoxP3 (AU): cell extracts, immX3AVD = 100
Method: as §1
Another non-myeloid lineage was also tested. Primary human T-cells pre-selected for recognizing GAD65 peptide antigen, and the peptide antigen itself were purchased from Cellero LLC (Memphis, TN). THP1-Dual cells were treated with both GAD65 peptide antigen (1 ug/ml) and immodulin peptide (0.66 uM) using the protocol described in Example 2. After completion of the myeloid cell differentiation step (24 hours), supernatants were collected and 100,000 primary T-cells were added to each well in RPMI-1640 medium (100 uL per well). Plates were incubated for an additional 96 hours and cell extracts were prepared using CellLytic-M reagent (Sigma Chemical Co., St Louis, MO). Supernatants were assayed for CCL22, IL-10 and TGFbeta, and cell extracts assayed for FoxP3, all by ELISA using reagents from R&D Systems, Minneapolis, MN. The results are shown in the table below (**p<0.05 vs immX3AVD, set to=100): […]

[8] = Second binding experiment: FITC-HMW-HA binding with holotransferrin, pH and cold competitors; design: key to FITC-HMW-HA binding, +cold LMW-HA / FITC-HMW-HA binding, +cold HMW-HA: fluorescence counts normalized to peptide binding control = 100; settings: holotransferrin 10 ug/well; for FITC-HMW-HA binding, +cold HMW-HA: HMW-HA 10 ug/well; for FITC-HMW-HA binding, +cold LMW-HA: LMW-HA hexamer 10 ug/well; for FITC-HMW-HA binding, +cold PIP2: excess PIP2 500 ng/well
Method: as §2
A second binding experiment was done as above, but using either 6 mM sodium phosphate buffer pH 7.4 or sodium citrate buffer pH 5.2 in the presence of FITC-HMW-HA (1.5 ug/well), holotransferrin (10 ug/well) and excess PIP2 (500 ng/well), LMW-HA (hexamer; 10 ug/well) or HMW-HA (10 ug/well). **p<0.05 versus peptide binding control (=100);

Molecule: AFNSYELGSKGFYKKKQCRPSKGRKRGFCW [imm3K9]
COL1 (Collagen-1A1 immunoreactivity in supernatant) [5]: 155**

Molecule: AFNSYELGSKGFYKKKQCRPSKGRKRGFCWAVDKY [imm3K9c]
COL1 (Collagen-1A1 immunoreactivity in supernatant) [5]: 158**

Molecule: AFNSYELGSKKGFYKKKQCRPSKGRKRGFCW [imm3K9.1]
COL1 (Collagen-1A1 immunoreactivity in supernatant) [5]: 156**

Molecule: FNSYELGSLKKGFYKKKQCRPSKGRKRGFCW [imm3K8]
COL1 (Collagen-1A1 immunoreactivity in supernatant) [5]: 98

Molecule: KKGFYKKKQCRPSKGRKRGFCW(dS)(dV)(dD) (KKGFYKKKQCRPSKGRKRGFCW[dS][dV][dD]; cysteine pairing not given here) [immX3dSdVdD]
CD169+ (AU) [2]: 145.7 ± 9.3 AU | Creatine Kinase Act. [6]: 155.6 ± 14.1** units per milliliter | FoxP3 (AU) [7]: 176.6 ± 8.0** AU | CCL22 ([7]; supernatant): 77.8 ± 2.0 pg/mL | IL-10 ([7]; supernatant): 1534 ± 176.4 pg/mL | TGFb ([7]; supernatant): 87.6 ± 10.7 pg/mL

Molecule: RKGFYKRKQCKPSRGRKRGICWAVD [immX5AVD]
CD169+ (AU) [2]: 100.9 ± 3.5 AU | CCL22 [2]: 228.6 ± 8.1 pg/mL | Heparin binding (fluorescence counts) [3]: 68.7 ± 26.2 | Hyaluronate binding (fluorescence counts) [4]: 113.9 ± 15.7 | FITC-HMW-HA binding, CONTROL ([8]; pH 5.2): 66.6 ± 7.2** | FITC-HMW-HA binding, +cold HMW-HA ([8]; pH 5.2): 9.6 ± 6.5** | FITC-HMW-HA binding, +cold LMW-HA ([8]; pH 5.2): 76.8 ± 5.9 | FITC-HMW-HA binding, +cold PIP2 ([8]; pH 5.2): 52.8 ± 4.0** | FITC-HMW-HA binding, +cold HMW-HA ([8]; pH 7.4): 22.6 ± 8.8** | FITC-HMW-HA binding, +cold LMW-HA ([8]; pH 7.4): 94.9 ± 11.4 | FITC-HMW-HA binding, +cold PIP2 ([8]; pH 7.4): 53.7 ± 2.1** | FITC-HMW-HA binding, CONTROL ([8]; pH 7.4, peptide binding control = 100): 100.0 ± 7.6 | FoxP3 (AU) [7]: 14.8 ± 4.3** AU | CCL22 (pg/ml) ([7]; supernatant): 58.7 ± 2.7** pg/ml | IL-10 (pg/ml) ([7]; supernatant): 870 ± 8.2** pg/ml | TGFb (pg/ml) ([7]; supernatant): 52.8 ± 7.4** pg/ml

Second part, led by results:

Binding to Phosphatidylinositol [1]: — | Binding to PtdIns(3,4,5)P [PIP3] [1]: — | Binding to PtdIns(4)P [PIP1] [1]: — | Binding to PtdIns(4,5)P [PIP2] [1]: — | Heparin binding (fluorescence counts) [3]: 27.4 ± 22.9 | Hyaluronate binding (fluorescence counts) [4]: 3.1 ± 9.8
Molecule: CSCC[C@H](NC(=O)[C@H](CCCCN)NC(=O)[C@H](CS)NC(=O)[C@H](CCC(N)=O)NC(=O)[C@H](CCCCN)NC(=O)[C@H](CC(C)C)NC(=O)[C@H](CC(N)=O)NC(=O)[C@H](Cc1ccc(O)cc1)NC(=O)[C@H](CC(C)C)NC(=O)CNC(=O)[C@H](Cc1c[nH]cn1)NC(=O)[C@@H](N)CCCCN)C(=O)N[C@@H](CO)C(=O)N[C@@H](CC(C)C)C(=O)N[C@@H](CC(N)=O)C(=O)NCC(=O)N[C@@H](CCC(N)=O)C(=O)N[C@@H](CCCNC(=N)N)C(=O)NCC(=O)N[C@@H](CCC(=O)O)C(=O)N[C@@H](CS)C(=O)N[C@@H](Cc1c[nH]c2ccccc12)C(=O)O [imm2]
CD169+ (AU) [2]: 3.0 ± 0.5 AU

Binding to Phosphatidylinositol [1]: — | Binding to PtdIns(3,4,5)P [PIP3] [1]: — | Binding to PtdIns(4)P [PIP1] [1]: — | Heparin binding (fluorescence counts) [3]: 97.2 ± 17.3 | Hyaluronate binding (fluorescence counts) [4]: 44.9 ± 14.1**
Molecule: N=C(N)NCCC[C@H](NC(=O)[C@H](CCCNC(=N)N)NC(=O)[C@H](CCC(N)=O)NC(=O)CNC(=O)[C@H](CCC(N)=O)NC(=O)[C@H](CO)NC(=O)[C@H](CO)NC(=O)[C@H](CCCNC(=N)N)NC(=O)[C@H](CS)NC(=O)[C@H](CCC(N)=O)NC(=O)[C@H](CCCNC(=N)N)NC(=O)[C@H](CCCCN)NC(=O)[C@H](CCCNC(=N)N)NC(=O)[C@H](Cc1ccc(O)cc1)NC(=O)[C@H](Cc1ccccc1)NC(=O)CNC(=O)[C@H](CCCNC(=N)N)NC(=O)[C@@H](N)Cc1c[nH]cn1)C(=O)NCC(=O)N1CCC[C@H]1C(=O)N[C@@H](CS)C(=O)N[C@@H](Cc1c[nH]c2ccccc12)C(=O)O [imm6] (H-HRGFYRKRQCRSSQGQRRGPCW-OH)
CD169+ (AU) [2]: 19.9 ± 2.3 AU

Heparin binding (fluorescence counts) [3]: 55.5 ± 5.7** | Hyaluronate binding (fluorescence counts) [4]: 104.2 ± 14.7
Molecule: KKGFYKKKQCRPSKGRKRGFCW(dA)(dV)(dD) (KKGFYKKKQCRPSKGRKRGFCW[dA][dV][dD]; cysteine pairing not given here) [immX3dAdVdD]
CD169+ (AU) [2]: 183.3 ± 6.4 AU | Clec12A(AU) [2]: 106.6 ± 5.2 AU | Creatine Kinase Act. [6]: 132.8 ± 5.2** units per milliliter

Heparin binding (fluorescence counts) [3]: 7.3 ± 17.1 | Hyaluronate binding (fluorescence counts) [4]: 61.1 ± 34.1
Molecule: RNGNFHPKQCHPALDGQRGKCWAVD [immX4AVD]
CD169+ (AU) [2]: 1.0 ± 0.3 AU

Heparin binding (fluorescence counts) [3]: 56.0 ± 7.3** | Hyaluronate binding (fluorescence counts) [4]: 101.9 ± 16.4
Molecule: SLNPEWNETKGFYKKKQCRPSKGRKRGFCW(dA)(dV)(dD) (SLNPEWNETKGFYKKKQCRPSKGRKRGFCW[dA][dV][dD]; cysteine pairing not given here) [immX3K1dAdVdD]
CD169+ (AU) [2]: 249.3 ± 13.9 AU | Clec12A(AU) [2]: 321.9 ± 25.6 AU | CCL22 [2]: 135.8 ± 24.2 pg/mL

— US20240034761A1, “REGENERATION OF MAMMALIAN TISSUES USING SYNTHETIC IMMODULINS” (priority 2022, published 2024)
